Data as given in PubChem BioAssay AID1963965 (Molecular Pharmacology Branch, DTP, NCI, 2024).

Test system: 996289-038-R-J1-PDC spheroid viability
Assay: Anticancer human tumor 996289-038-R-J1-PDC patient-derived colon adenocarcinoma cell line growth inhibition [PI3K]
Conditions: spheroids with HUVEC and MSC; for IC50: curve of first compound; for viability, T/C: stronger effect = lower value
How it was run: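 Agents were dosed from a top concentration near clinical Cmax (otherwise 10 microM) in half-log decrements, alone or combined with PI3K inhibitors. The spheroids contain tumor cells plus endothelial (HUVEC) and MSC stroma; viability is measured.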

[1] = second compound 0.0316 µM, first compound 0.0316 µM
[2] = second compound 0.0316 µM, first compound 0.1 µM
[3] = second compound 0.1 µM, first compound 0.0316 µM
[4] = second compound 0.1 µM, first compound 0.1 µM
[5] = second compound 0.316 µM, first compound 0.0316 µM
[6] = second compound 0.316 µM, first compound 0.1 µM
[7] = second compound 1 µM, first compound 0.0316 µM
[8] = second compound 1 µM, first compound 0.1 µM
[9] = second compound 3.16 µM, first compound 0.0316 µM
[10] = second compound 3.16 µM, first compound 0.1 µM
[11] = second compound 10 µM, first compound 0.0316 µM
[12] = second compound 10 µM, first compound 0.1 µM
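Further: spheroids exposed to compounds for seven days before viability read.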
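Wherever viability, T/C is given: luminescence used as a proxy for viable cell amount; percent viability relative to DMSO vehicle control as 100%.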

## CC(C)n1nc(-c2ccc3oc(N)nc3c2)c2c(N)ncnc21 + Cc1nc(NC(=O)N2CCCC2C(N)=O)sc1-c1ccnc(C(C)(C)C(F)(F)F)c1
Second compound 0.0316 µM
  IC50: 54.8 nM
Second compound 0.1 µM
  IC50: 27.3 nM
Second compound 0.316 µM
  IC50: 41.5 nM
Second compound 1 µM
  IC50: 26 nM
Second compound 3.16 µM
  IC50: 2.54 nM
Second compound 10 µM
  IC50: < 0.316 nM
Second compound 0.0316 µM, first compound 0.000316 µM
  viability, T/C: 97.1%
Second compound 0.0316 µM, first compound 0.001 µM
  viability, T/C: 83.5%
Second compound 0.0316 µM, first compound 0.00316 µM
  viability, T/C: 89.2%
Second compound 0.0316 µM, first compound 0.01 µM
  viability, T/C: 79%
[1]
  viability, T/C: 66.5%
[2]
  viability, T/C: 33.1%
Second compound 0.1 µM, first compound 0.000316 µM
  viability, T/C: 100%
Second compound 0.1 µM, first compound 0.001 µM
  viability, T/C: 83.2%
Second compound 0.1 µM, first compound 0.00316 µM
  viability, T/C: 78.4%
Second compound 0.1 µM, first compound 0.01 µM
  viability, T/C: 61.7%
[3]
  viability, T/C: 54.5%
[4]
  viability, T/C: 25.4%
Second compound 0.316 µM, first compound 0.000316 µM
  viability, T/C: 77.7%
Second compound 0.316 µM, first compound 0.001 µM
  viability, T/C: 86.4%
Second compound 0.316 µM, first compound 0.00316 µM
  viability, T/C: 93%
Second compound 0.316 µM, first compound 0.01 µM
  viability, T/C: 58.9%
[5]
  viability, T/C: 63.3%
[6]
  viability, T/C: 24.1%
Second compound 1 µM, first compound 0.000316 µM
  viability, T/C: 72.5%
Second compound 1 µM, first compound 0.001 µM
  viability, T/C: 79.9%
Second compound 1 µM, first compound 0.00316 µM
  viability, T/C: 66.5%
Second compound 1 µM, first compound 0.01 µM
  viability, T/C: 59.5%
[7]
  viability, T/C: 49.8%
[8]
  viability, T/C: 22.3%
Second compound 3.16 µM, first compound 0.000316 µM
  viability, T/C: 63.9%
Second compound 3.16 µM, first compound 0.001 µM
  viability, T/C: 53%
Second compound 3.16 µM, first compound 0.00316 µM
  viability, T/C: 48.5%
Second compound 3.16 µM, first compound 0.01 µM
  viability, T/C: 40.6%
[9]
  viability, T/C: 32.3%
[10]
  viability, T/C: 17.2%
Second compound 10 µM, first compound 0.000316 µM
  viability, T/C: 43.9%
Second compound 10 µM, first compound 0.001 µM
  viability, T/C: 40.8%
Second compound 10 µM, first compound 0.00316 µM
  viability, T/C: 40.4%
Second compound 10 µM, first compound 0.01 µM
  viability, T/C: 35.5%
[11]
  viability, T/C: 25.2%
[12]
  viability, T/C: 14.2%

## CC1(C)CCC(CN2CCN(c3ccc(C(=O)NS(=O)(=O)c4ccc(NCC5CCOCC5)c([N+](=O)[O-])c4)c(Oc4cnc5[nH]ccc5c4)c3)CC2)=C(c2ccc(Cl)cc2)C1 + Cc1nc(NC(=O)N2CCCC2C(N)=O)sc1-c1ccnc(C(C)(C)C(F)(F)F)c1
Second compound 0.0316 µM
  IC50: 9830 nM
Second compound 0.1 µM
  IC50: 8620 nM
Second compound 0.316 µM
  IC50: 8310 nM
Second compound 1 µM
  IC50: 6150 nM
Second compound 3.16 µM
  IC50: 4840 nM
Second compound 10 µM
  IC50: < 31.6 nM
[1]
  viability, T/C: 94%
[2]
  viability, T/C: 91.8%
Second compound 0.0316 µM, first compound 0.316 µM
  viability, T/C: 105%
Second compound 0.0316 µM, first compound 1 µM
  viability, T/C: 110%
Second compound 0.0316 µM, first compound 3.16 µM
  viability, T/C: 96.9%
Second compound 0.0316 µM, first compound 10 µM
  viability, T/C: 49.3%
[3]
  viability, T/C: 95.2%
[4]
  viability, T/C: 102%
Second compound 0.1 µM, first compound 0.316 µM
  viability, T/C: 88.1%
Second compound 0.1 µM, first compound 1 µM
  viability, T/C: 102%
Second compound 0.1 µM, first compound 3.16 µM
  viability, T/C: 105%
Second compound 0.1 µM, first compound 10 µM
  viability, T/C: 42.8%
[5]
  viability, T/C: 88.8%
[6]
  viability, T/C: 84.9%
Second compound 0.316 µM, first compound 0.316 µM
  viability, T/C: 95.9%
Second compound 0.316 µM, first compound 1 µM
  viability, T/C: 93.2%
Second compound 0.316 µM, first compound 3.16 µM
  viability, T/C: 92.5%
Second compound 0.316 µM, first compound 10 µM
  viability, T/C: 42.1%
[7]
  viability, T/C: 68.6%
[8]
  viability, T/C: 83.4%
Second compound 1 µM, first compound 0.316 µM
  viability, T/C: 67.8%
Second compound 1 µM, first compound 1 µM
  viability, T/C: 82.6%
Second compound 1 µM, first compound 3.16 µM
  viability, T/C: 75.8%
Second compound 1 µM, first compound 10 µM
  viability, T/C: 31.6%
[9]
  viability, T/C: 66.3%
[10]
  viability, T/C: 60.9%
Second compound 3.16 µM, first compound 0.316 µM
  viability, T/C: 60.4%
Second compound 3.16 µM, first compound 1 µM
  viability, T/C: 61%
Second compound 3.16 µM, first compound 3.16 µM
  viability, T/C: 62.6%
Second compound 3.16 µM, first compound 10 µM
  viability, T/C: 29.3%
[11]
  viability, T/C: 34.9%
[12]
  viability, T/C: 41.8%
Second compound 10 µM, first compound 0.316 µM
  viability, T/C: 42.2%
Second compound 10 µM, first compound 1 µM
  viability, T/C: 54.4%
Second compound 10 µM, first compound 3.16 µM
  viability, T/C: 45.1%
Second compound 10 µM, first compound 10 µM
  viability, T/C: 15.4%
